Assay: Stroke model, transient middle cerebral artery occlusion (tMCAO)
Type: in vivo
Settings: mice, 60 min tMCAO, 3.2 mg/kg i.p. at 2 h and 12 h, sacrificed 24 h after tMCAO, vs vehicle
Experimental: FIG. 4 is a bar chart showing the infarct volume (mm3) in a mice model of stroke, where mice were treated with the inventive compound ethyl 2-(2-(4-(furan-2-carbonyl)piperazin-1-yl)acetamido)-5,6-dihydro-4H-cyclopenta[b]thiophene-3-carboxylate (“INVENTION”) or with vehicle (“CONTROL”).
The stroke disease model used in this example was mice that were subjected to transient middle cerebral artery occlusion (tMCAO) to mimic the mechanisms of ischemic stroke. Male mice weighing 20 g, was subjected to a 60 min of tMCAO as previously described (Elevers M et al., Sci. Signal 3: ra1, 2010; Bena_Erro A et al., Sci Signal 2: ra67). Sham-operated mice were used as control.
For the i.p. administrations performed in this study, 3.5 mg of ethyl 2-(2-(4-(furan-2-carbonyl)piperazin-1-yl)acetamido)-5,6-dihydro-4H-cyclopenta[b]thiophene-3-carboxylate was dissolved in 1 ml of DMSO and 5 ml of 20% Cremophor ELP in PBS then followed by additional PBS. The administered dose used in the experiment was 3.2 mg/kg and in the controls the same injection volume of vehicle was used. Administration was made at 2 h and 12 h for each mouse.
To determine infarct size and effect of Nox4 inhibitor, mice were sacrificed 24 h after tCMCAO and lesion volumes of the brain were determined according to a previously described methodology (Kleinschnitz et al, vide supra).

## CCOC(=O)c1c(NC(=O)CN2CCN(C(=O)c3ccco3)CC2)sc2c1CCC2 [the inventive compound, ethyl 2-(2-(4-(furan-2-carbonyl)piperazin-1-yl)acetamido)-5,6-dihydro-4H-cyclopenta[b]thiophene-3-carboxylate]
  lesion volume of the brain (infarct volume): significantly lower lesion volume of the brain

From US20150051220A1, “COMPOUNDS FOR USE IN THERAPY” (GLUCOX BIOTECH AB, priority 2012, published 2015)
